According to publication PMC4890880 (ACS infectious diseases, 2016):
Like-named read-outs stand apart in the source and are kept apart here.

Key:
[1] = test system: Plasmodium berghei (Pb-Luc) exoerythrocytic-stage parasites; details: for IC50: read-out: PbLuc_IC50
[2] = test system: HepG2-A16-CD81EGFP cells; details: for IC50: read-out: Tox_IC50, HepG2 cytotoxicity
[3] = first series, fraction of control
[4] = second series, fraction of control
[5] = sheet 2nd round, maximal inhibition in dose response
[6] = first series of columns, fraction of control
[7] = second series of columns (replicate), fraction of control
[8] = 2nd round, maximal inhibition in dose series

SMILES: CCc1csc(N2[C@H](CO)[C@H](c3ccccc3)[C@@H]2CNC)n1 [BRD-K87640608-001-01-8]
- normalized signal at concentration 10 ([1]; first series of dose-response columns, fraction of control): 0.6764
- normalized signal at concentration 0.000508053 [1, 3]: 0.8428
- normalized signal at concentration 0.00152416 [1, 3]: 0.8502
- normalized signal at concentration 0.00457247 [1, 3]: 0.7149
- normalized signal at concentration 0.0137174 [1, 3]: 0.7931
- normalized signal at concentration 0.0411523 [1, 3]: 0.9257
- normalized signal at concentration 0.123457 [1, 3]: 0.8195
- normalized signal at concentration 0.37037 [1, 3]: 0.9077
- normalized signal at concentration 1.11111 [1, 3]: 1.056
- normalized signal at concentration 3.33333 [1, 3]: 0.9058
- IC50 ([1]; sheet 2nd round, Broad compounds, dose response): > 10 µM
- normalized signal at concentration 10 ([1]; second series of dose-response columns, fraction of control): 0.7611
- normalized signal at concentration 0.000508053 [1, 4]: 1.024
- normalized signal at concentration 0.00152416 [1, 4]: 0.9242
- normalized signal at concentration 0.00457247 [1, 4]: 1.045
- normalized signal at concentration 0.0137174 [1, 4]: 0.9989
- normalized signal at concentration 0.0411523 [1, 4]: 0.8698
- normalized signal at concentration 0.123457 [1, 4]: 0.9345
- normalized signal at concentration 0.37037 [1, 4]: 1.174
- normalized signal at concentration 1.11111 [1, 4]: 1.035
- normalized signal at concentration 3.33333 [1, 4]: 0.7843
- PbLuc_max_inhibition (%) [1, 5]: 32%
- IC50 ([2]; sheet 2nd round): > 10 µM
- Tox_max_inhibition (%) [2, 5]: 3.76%

SMILES: C[C@H](CO)N1C[C@H](C)[C@H](CN(C)S(=O)(=O)c2ccc(F)cc2)OCCCC[C@H](C)Oc2ccc(N(C)C)cc2C1=O [BRD-K59130783-001-01-1]
- normalized signal at concentration 0.000508053 [1, 6]: 0.8293
- normalized signal at concentration 0.00152416 [1, 6]: 0.8148
- normalized signal at concentration 0.00457247 [1, 6]: 0.8395
- normalized signal at concentration 0.0137174 [1, 6]: 0.9506
- normalized signal at concentration 0.0411523 [1, 6]: 0.8723
- normalized signal at concentration 0.123457 [1, 6]: 1.0641
- normalized signal at concentration 0.37037 [1, 6]: 0.9674
- normalized signal at concentration 1.11111 [1, 6]: 0.9129
- normalized signal at concentration 3.33333 [1, 6]: 0.9251
- normalized signal at concentration 10 [1, 6]: 0.7483
- IC50 ([1]; sheet 2nd round, Pb-Luc exoerythrocytic stage, 10-point dose response, top concentration 10): > 10 µM
- normalized signal at concentration 0.000508053 [1, 7]: 1.007
- normalized signal at concentration 0.00152416 [1, 7]: 0.9488
- normalized signal at concentration 0.00457247 [1, 7]: 0.9241
- normalized signal at concentration 0.0137174 [1, 7]: 0.9817
- normalized signal at concentration 0.0411523 [1, 7]: 0.8684
- normalized signal at concentration 0.123457 [1, 7]: 0.9044
- normalized signal at concentration 0.37037 [1, 7]: 1.051
- normalized signal at concentration 1.11111 [1, 7]: 0.8044
- normalized signal at concentration 3.33333 [1, 7]: 0.946
- normalized signal at concentration 10 [1, 7]: 0.5139
- PbLuc_max_inhibition (%) [1, 5]: 49%
- IC50 ([2]; sheet 2nd round): > 10 µM
- Tox_max_inhibition (%) [2, 5]: 7%

SMILES: O=C(Cc1ccccn1)N1CC2(C1)[C@H](c1ccccc1)[C@H](CO)N2C(=O)c1ccncc1 [BRD-K71274172-001-01-0]
- PbLuc_max_inhibition (%) [1, 8]: 33%
- normalized signal at 0.000508053 (first series) ([1]; concentration 0.000508053, first replicate series, fraction of control): 0.9199
- normalized signal at 0.000508053 (second series) ([1]; concentration 0.000508053, second replicate series, fraction of control): 0.7398
- normalized signal at 0.00152416 (first series) ([1]; concentration 0.00152416, first replicate series, fraction of control): 1.024
- normalized signal at 0.00152416 (second series) ([1]; concentration 0.00152416, second replicate series, fraction of control): 0.9453
- normalized signal at 0.00457247 (first series) ([1]; concentration 0.00457247, first replicate series, fraction of control): 1.112
- normalized signal at 0.00457247 (second series) ([1]; concentration 0.00457247, second replicate series, fraction of control): 0.9743
- normalized signal at 0.0137174 (first series) ([1]; concentration 0.0137174, first replicate series, fraction of control): 0.9082
- normalized signal at 0.0137174 (second series) ([1]; concentration 0.0137174, second replicate series, fraction of control): 0.6716
- normalized signal at 0.0411523 (first series) ([1]; concentration 0.0411523, first replicate series, fraction of control): 1.078
- normalized signal at 0.0411523 (second series) ([1]; concentration 0.0411523, second replicate series, fraction of control): 0.9171
- normalized signal at 0.123457 (first series) ([1]; concentration 0.123457, first replicate series, fraction of control): 1.09
- normalized signal at 0.123457 (second series) ([1]; concentration 0.123457, second replicate series, fraction of control): 1.008
- normalized signal at 0.37037 (first series) ([1]; concentration 0.37037, first replicate series, fraction of control): 0.9519
- normalized signal at 0.37037 (second series) ([1]; concentration 0.37037, second replicate series, fraction of control): 0.8993
- normalized signal at 1.11111 (first series) ([1]; concentration 1.11111, first replicate series, fraction of control): 1.039
- normalized signal at 1.11111 (second series) ([1]; concentration 1.11111, second replicate series, fraction of control): 0.6979
- normalized signal at 3.33333 (first series) ([1]; concentration 3.33333, first replicate series, fraction of control): 0.9642
- normalized signal at 3.33333 (second series) ([1]; concentration 3.33333, second replicate series, fraction of control): 0.9744
- normalized signal at 10 (first series) ([1]; concentration 10, first replicate series, fraction of control): 1.127
- normalized signal at 10 (second series) ([1]; concentration 10, second replicate series, fraction of control): 0.8663
- IC50 ([1]; 2nd round, Broad DOS compounds, unit not printed (dose series head 10 to 0.000508053)): > 10 µM
- Tox_max_inhibition (%) [2, 8]: 8%
- IC50 ([2]; 2nd round, unit inferred): > 10 µM
